# Reference: ChEMBL document CHEMBL3885881, “DrugMatrix”
# Species on record: Rattus norvegicus
# Test: DrugMatrix - Regimen: Daily Repeat
# Format: toxicity, organism-based, Sprague-Dawley
# Design: regimen Daily Repeat, gender Male, age 6-8 weeks
# Conditions: in vivo, sc, route subcutaneous, […]; for ABSOLUTE BASOPHIL / ABSOLUTE EOSINOPHIL / ABSOLUTE LYMPHOCYTE / ABSOLUTE MONOCYTE / ABSOLUTE SEGMENTED NEUTROPHIL / BASOPHIL / EOSINOPHIL / ERYTHROCYTE COUNT / HEMATOCRIT / HEMOGLOBIN / LEUKOCYTE COUNT / LYMPHOCYTE / MEAN CORPUSCULAR HEMOGLOBIN / MEAN CORPUSCULAR HEMOGLOBIN CONCENTRATION / MEAN CORPUSCULAR VOLUME / MONOCYTE / NEUTROPHIL / NUCLEATED RED BLOOD CELLS / PLATELET COUNT: tissue Blood; for ALANINE AMINOTRANSFERASE / ALBUMIN / ALKALINE PHOSPHATASE / ASPARTATE AMINOTRANSFERASE / BLOOD UREA NITROGEN / CARBON DIOXIDE / CHLORIDE / CHOLESTEROL / CREATINE PHOSPHOKINASE / CREATININE / GLUCOSE / LACTATE DEHYDROGENASE / LIPASE / PHOSPHORUS / POTASSIUM / SODIUM / TOTAL BILIRUBIN / TOTAL PROTEIN / URIC ACID: tissue Plasma
# [1] = 0 mg/kg, 72 h, dose level Control, time 3 day
# [2] = 0 mg/kg, 120 h, dose level Control, time 5 day
# [3] = 150 mg/kg, 72 h, dose level High, time 3 day
compound,measurement,setting,value
CN(Cc1ccc(C(C)(C)C)cc1)Cc1cccc2ccccc12 [BUTENAFINE],ABSOLUTE BASOPHIL,[1],0 CELLS/uL
same,ABSOLUTE EOSINOPHIL,[1],0 CELLS/uL
same,ABSOLUTE LYMPHOCYTE,[1],10887 CELLS/uL
same,ABSOLUTE MONOCYTE,[1],56 CELLS/uL
same,ABSOLUTE SEGMENTED NEUTROPHIL,[1],1057 CELLS/uL
same,BASOPHIL,[1],0%
same,EOSINOPHIL,[1],0%
same,ERYTHROCYTE COUNT,[1],5.31 x10E6/uL
same,HEMATOCRIT,[1],33.78%
same,HEMOGLOBIN,[1],13.4 G/DL
same,LEUKOCYTE COUNT,[1],12 x10E3/uL
same,LYMPHOCYTE,[1],91.17%
same,MEAN CORPUSCULAR HEMOGLOBIN,[1],25.25 pg
same,MEAN CORPUSCULAR HEMOGLOBIN CONCENTRATION,[1],39.65 G/DL
same,MEAN CORPUSCULAR VOLUME,[1],63.65 fL
same,MONOCYTE,[1],0.5%
same,NEUTROPHIL,[1],8.33%
same,NUCLEATED RED BLOOD CELLS,[1],0 /100WBC
same,PLATELET COUNT,[1],1142 x10E3/uL
same,ALANINE AMINOTRANSFERASE,[1],57.17 u/L
same,ALBUMIN,[1],4.28 G/DL
same,ALKALINE PHOSPHATASE,[1],425.83 u/L
same,ASPARTATE AMINOTRANSFERASE,[1],93.83 u/L
same,BLOOD UREA NITROGEN,[1],14.17 mg/dL
same,CARBON DIOXIDE,[1],33.5 mmol/L
same,CHLORIDE,[1],100 MEQ/L
same,CHOLESTEROL,[1],70.33 mg/dL
same,CREATINE PHOSPHOKINASE,[1],438.67 u/L
same,CREATININE,[1],0.19 mg/dL
same,GLUCOSE,[1],138.5 mg/dL
same,LACTATE DEHYDROGENASE,[1],190.17 u/L
same,LIPASE,[1],9.83 u/L
same,PHOSPHORUS,[1],11.05 mg/dL
same,POTASSIUM,[1],6.59 MEQ/L
same,SODIUM,[1],143.58 MEQ/L
same,TOTAL BILIRUBIN,[1],0.22 mg/dL
same,TOTAL PROTEIN,[1],6.15 G/DL
same,URIC ACID,[1],1.3 mg/dL
same,ABSOLUTE BASOPHIL,[2],0 CELLS/uL
same,ABSOLUTE EOSINOPHIL,[2],91.17 CELLS/uL
same,ABSOLUTE LYMPHOCYTE,[2],11847.67 CELLS/uL
same,ABSOLUTE MONOCYTE,[2],172.83 CELLS/uL
same,ABSOLUTE SEGMENTED NEUTROPHIL,[2],1105 CELLS/uL
same,BASOPHIL,[2],0%
same,EOSINOPHIL,[2],0.67%
same,ERYTHROCYTE COUNT,[2],5.35 x10E6/uL
same,HEMATOCRIT,[2],33.65%
same,HEMOGLOBIN,[2],13.42 G/DL
same,LEUKOCYTE COUNT,[2],13.22 x10E3/uL
same,LYMPHOCYTE,[2],89.83%
same,MEAN CORPUSCULAR HEMOGLOBIN,[2],25.12 pg
same,MEAN CORPUSCULAR HEMOGLOBIN CONCENTRATION,[2],39.9 G/DL
same,MEAN CORPUSCULAR VOLUME,[2],63 fL
same,MONOCYTE,[2],1.33%
same,NEUTROPHIL,[2],8.17%
same,NUCLEATED RED BLOOD CELLS,[2],0 /100WBC
same,PLATELET COUNT,[2],1347.83 x10E3/uL
same,ALANINE AMINOTRANSFERASE,[2],50 u/L
same,ALBUMIN,[2],4.1 G/DL
same,ALKALINE PHOSPHATASE,[2],329.17 u/L
same,ASPARTATE AMINOTRANSFERASE,[2],77.17 u/L
same,BLOOD UREA NITROGEN,[2],16.83 mg/dL
same,CARBON DIOXIDE,[2],34.83 mmol/L
same,CHLORIDE,[2],99.83 MEQ/L
same,CHOLESTEROL,[2],75.67 mg/dL
same,CREATINE PHOSPHOKINASE,[2],295.83 u/L
same,CREATININE,[2],0.18 mg/dL
same,GLUCOSE,[2],156.33 mg/dL
same,LACTATE DEHYDROGENASE,[2],166.83 u/L
same,LIPASE,[2],9.83 u/L
same,PHOSPHORUS,[2],12.18 mg/dL
same,POTASSIUM,[2],6.69 MEQ/L
same,SODIUM,[2],143.97 MEQ/L
same,TOTAL BILIRUBIN,[2],0.22 mg/dL
same,TOTAL PROTEIN,[2],6.05 G/DL
same,URIC ACID,[2],1.6 mg/dL
same,ABSOLUTE BASOPHIL,[3],0 CELLS/uL
same,ABSOLUTE EOSINOPHIL,[3],0 CELLS/uL
same,ABSOLUTE LYMPHOCYTE,[3],11405 CELLS/uL
same,ABSOLUTE MONOCYTE,[3],88.33 CELLS/uL
same,ABSOLUTE SEGMENTED NEUTROPHIL,[3],1473.33 CELLS/uL
same,BASOPHIL,[3],0%
same,EOSINOPHIL,[3],0%
same,ERYTHROCYTE COUNT,[3],5.31 x10E6/uL
same,HEMATOCRIT,[3],33.8%
same,HEMOGLOBIN,[3],13.6 G/DL
same,LEUKOCYTE COUNT,[3],12.97 x10E3/uL
same,LYMPHOCYTE,[3],88%
same,MEAN CORPUSCULAR HEMOGLOBIN,[3],25.63 pg
same,MEAN CORPUSCULAR HEMOGLOBIN CONCENTRATION,[3],40.27 G/DL
same,MEAN CORPUSCULAR VOLUME,[3],63.67 fL
same,MONOCYTE,[3],0.67%
same,NEUTROPHIL,[3],11.33%
same,NUCLEATED RED BLOOD CELLS,[3],0 /100WBC
same,PLATELET COUNT,[3],1396 x10E3/uL
same,ALANINE AMINOTRANSFERASE,[3],55 u/L
same,ALBUMIN,[3],3.97 G/DL
same,ALKALINE PHOSPHATASE,[3],429.67 u/L
same,ASPARTATE AMINOTRANSFERASE,[3],77.33 u/L
same,BLOOD UREA NITROGEN,[3],15.67 mg/dL
same,CARBON DIOXIDE,[3],31.67 mmol/L
same,CHLORIDE,[3],101.67 MEQ/L
same,CHOLESTEROL,[3],73 mg/dL
same,CREATINE PHOSPHOKINASE,[3],247 u/L
same,CREATININE,[3],0.17 mg/dL
same,GLUCOSE,[3],147.33 mg/dL
same,LACTATE DEHYDROGENASE,[3],229.67 u/L
same,LIPASE,[3],9 u/L
same,PHOSPHORUS,[3],13.73 mg/dL
same,POTASSIUM,[3],6.88 MEQ/L
same,SODIUM,[3],145.7 MEQ/L
same,TOTAL BILIRUBIN,[3],0.2 mg/dL
same,TOTAL PROTEIN,[3],5.73 G/DL
same,URIC ACID,[3],1.4 mg/dL
